The record followed here is patent US8497075B2, “Methods of identifying a modulator that inhibits the binding between Epstein-Barr virus induced receptor 2 and cholesterol derived ligands” (Novartis AG, priority 2008, dated 2013).

Assay [1] deals with T1, hEBI2 (Homo sapiens, UniProt P32249). The assay is described as follows: calcium fluorescence (FLIPR). It counts as cell-based. On the set-up: expressed in transfected cells; host or cells: CHO-K1 expressing apoaequorin (CHO-Aeq) with Gqi5; line E2. As for the experimental part: If not stated otherwise compounds were dissolved at 10 mM in DMSO or ethanol (cholesterol, 25MDC). Serial dilutions were carried out in 90% DMSO (FLIPR, GTPgS) or assay buffer (binding assay). For cell based assays final DMSO concentrations is kept below 1%.
T1 sequence (P32249 whole entry): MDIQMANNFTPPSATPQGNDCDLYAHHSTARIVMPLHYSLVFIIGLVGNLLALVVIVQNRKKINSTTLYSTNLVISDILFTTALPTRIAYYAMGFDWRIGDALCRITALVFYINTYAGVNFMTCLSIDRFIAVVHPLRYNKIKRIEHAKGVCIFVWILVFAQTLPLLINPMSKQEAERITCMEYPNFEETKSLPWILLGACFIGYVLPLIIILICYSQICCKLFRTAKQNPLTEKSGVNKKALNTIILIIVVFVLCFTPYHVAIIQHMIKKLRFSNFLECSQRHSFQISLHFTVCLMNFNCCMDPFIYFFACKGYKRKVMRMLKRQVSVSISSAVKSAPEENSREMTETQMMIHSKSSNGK
If not stated otherwise, the same Chinese hamster ovary (CHO) cell line called E2 which was used for the ligand identification was used in these experiments. This cell line is expressing (1) the recombinant human EBI2 receptor, (2) the promiscuous Gqi5 protein as well as (3) apo-aequorin.
Cells were seeded in black/clear bottom, poly-D-Lysine coated 384-well plates at a cell density of 10,000 cells/25 μL/well, using culture medium. Cells were cultured for 24 hours at 37° C./5% CO2. Culture medium was removed and for cell loading, 20 μl per well of loading buffer (Calcium-4 no wash dye) were distributed into the wells and the plates were incubated for 60 min at 37° C. in 5% CO2. With the FLIPR pipettor, 10 μl of the different compounds were added to the cells and the subsequent fluorescent changes monitored for 3 minutes. Using the FLIPR software tool, 2 values of fluorescence calcium responses were exported: Fmax, the fluorescence at the peak and Fbasal corresponding to the value prior to compound injection. From these two values, the calcium response is normalized with respect to the calcium baseline values using dF/F=(Fmax−Fbasal)/Fbasal. The maximum dF/F is called Emax.

Assay [2] concerns the target T1, hEBI2. Briefly: [3H] 7a,25DHC radio-ligand binding assay (SPA), IC50 determination. On the set-up: expressed in transfected cells; host or cells: CHO-K1 expressing apoaequorin (CHO-Aeq) with Gqi5; line E2. On the procedure:
(§1) The cell suspension was then homogenized using a Dounce homogenizer (10 strokes) with a driller. After centrifugation at 110000×g for 45 minutes and removal of the supernatant, pellets were resuspended in sucrose buffer (50 mM Tris pH7.2, 250 mM sucrose, 10% glycerol) by vortexing. The suspension was again homogenize using a Dounce homogenizer (10 strokes) and spun at 100000×g for 45 minutes. The supernatant was discarded, the pellet resuspended in sucrose buffer, protein concentration determined, aliquoted and frozen at −80° C. These membrane preparations were used in binding as well as GTPgS assays.
Lyophilized wheat germ agglutinin scintilation proximity assay (SPA) beads (RPNQ0001) were purchased from GE Healthcare (Buckinghamshire, UK). One vial (500 mg) is reconstituted by adding 5 mL of distilled water to give a final concentration of 100 mg/mL. Reconstituted SPA beads must be stored at 4° C., but must not be frozen. [3H]-7a,25-OHC, was synthesized by reduction of the 7-keto, 25DHC in the presence of 3H-L-selectride.
The SPA assay was performed in a final volume of 50 μl per well in a 384-well polystyrene Opti plate. The components were added into the wells as follows: • 10 μl tested compounds in 50 mM Tris; 100 mM NaCl; 5 mM MgCl2 and 0.1% Cyclodextrine.
Total binding was determined by the addition of 10 μl of 50 mM Tris; 100 mM NaCl; 5 mM MgCl2 and 0.1% Cyclodextrine and non-specific binding was determined by the addition of 10 μl NVP-BYX998-NX-4 (final concentration of 10 μM). • 20 μL of 10 nM final [3H]-BYX998 in assay buffer (50 mM Tris-HCl, 100 mM NaCl, 5 mM MgCl2 and 0.1% Cyclodextrine). • 20 μL of a mixed bead and membrane suspension in assay buffer, in order to get a final concentration of 20 μg membranes/well and 200 μg beads/well.
The plates were sealed and shaken at room temperature for 10 minutes then allowed to stand at room temperature for at least 12 hours. The plates were counted using a Perkin Elmer TopCount reader, each well being counted for 1 minute.
Each IC50 determination was performed with 11 concentrations.
A standard data reduction algorithm was used to calculate the percentage of specific binding in the presence of test compound as follows: ((B−NSB)/(Total−NSB))·100, where B=Binding in the presence of test compound (in cpm) NSB=Non-specific binding in the presence of excess inhibitor (in cpm) Total=Binding in the absence of test compound (in cpm) Curve fitting of the normalized concentration response curves using a four parameter logistic fit is then performed using XLfit (v.2 or v.4, IDBS, Guildford, UK). The equation used is XLfit equation no. […] By default, min is fixed at 0, whereas max is not fixed.

Assay [3] addresses T1, hEBI2. Briefly: GTPγS assay on EBI2 membranes. On the set-up: expressed in transfected cells; host or cells: CHO-K1 expressing apoaequorin (CHO-Aeq) with Gqi5; line E2. In kind it is biochemical. As for the experimental part:
as §1
Ten micrograms of EBI2 membranes are dissolved in 40 μl of buffer A (20 mM Hepes pH 7.4, 100 mM NaCl, 1.5 mM MgCl2, Saponin 10 μg/ml) supplemented with 10 μM GDP. After addition of […] scintilation proximity assay (SPA) beads (100 μg/well, Amersham, RPNQ0001) components are gently mixed and incubated at RT for 15 minutes. Twenty microliters of compound diluted in buffer A and 20 μl of GTPγ^35S (Perkin Elmer NEG030X) is added before incubation for one hour at RT. Plates are transferred and counted in a TopCount (Perkin Elmer NXT HTS™) and counts are analysed plotted and to determine half maximal concentrations of activation using standard software (Prism™, GraphPad Software Inc.).

Assay [4] has as its target T1, hEBI2. The assay is described as follows: saturation binding, KD determination. On the set-up: expressed in transfected cells; host or cells: CHO-K1 expressing apoaequorin (CHO-Aeq) with Gqi5; line E2. On the procedure: as §1, with “CHO cells stably expressing human EBI2 (E2) were grown in roller bottles (Corning #431191) to confluency, washed with phosphate buffered saline (PBS) once and frozen at −80° C. The frozen cell pellets were resuspended in ice-cold homogenization buffer (10 ml/gram, 20 mM Tris pH7.2) supplemented with a protease inhibitor cocktail (Complete™, Roche, #05 056 489 001-14302200). The cell” for “The cell”
These solutions were made in buffer containing 50 mM Tris; 100 mM NaCl; 5 mM MgCl2 and 0.1% Cyclodextrine.
[…] was measured in presence of a constant 7a,25DHC (NVP-BYX998-NX-4) concentration of 10 uM final and the corresponding total binding was measured with buffer instead of NVP-BYX998-NX-4. […]

Another assay deals with RS11846 cells. The assay is described as follows: chemotaxis 96 transwell assay. In kind it is cell-based. On the procedure:
B cells (RS11846 or EBV-infected human B-cells) or murine bone marrow-derived dendritic cells were washed once with medium and resuspended at 1×10^6/ml. 100 μl of this suspension was added into the wells of the filter plate and gently placed into the receiver plate containing 150 μl of a given compound dilution. The final DMSO concentration was less then 0.1%. After migration for 3 hr at 37° C. in an incubator, the filter plate was carefully removed from the receiver plate and discarded. The migrated cells in the receiver plate were resuspended and transferred into round-bottom 96-well plate, centrifuged and resuspended in 100 μl PBS containing 2% FCS and 0.1% NaN3 (FACS buffer). The input cells (100 μl) were similarly processed. For the calculation of the specific migration, a fixed number of beads (10000; Invitrogen #PCB100)) in 20 μl FACS buffer was added and the suspension was analyzed by flow cytometry using a FACS instrument PAS™ (Partec). Cells were identified based on their forward scatter (FSC) and side scatter (SSC) pattern. Chemotaxis is expressed either as total cell number or as percent of input cells.

Turning to `CC(CO)CCC[C@@H](C)[C@H]1CC[C@H]2[C@@H]3[C@@H](O)C=C4C[C@@H](O)CC[C@]4(C)[C@H]3CC[C@]12C` (stereo partly drawn) [7b,27DHC, cholest-5-ene-3b,7b,27-triol], the EC50 (in general, the concentration at which the effect is half-maximal) on hEBI2 [1] (n = 3-4, read-out: FLIPR EC50) is 310 nM; at hEBI2 [3] (n = 3-4, read-out: GTPgS EC50) it was 125 nM. Further, on hEBI2 [2], the IC50 (commonly the concentration that inhibits the measured activity by half) is more than 10000 nM. Consider `C[C@H](CCCC(C)(C)O)[C@H]1CC[C@H]2[C@@H]3CC=C4C[C@@H](O)CC[C@]4(C)[C@H]3CC[C@]12C` [25DHC, 25-hydroxycholesterol], for which the results for the EC50 at hEBI2 [1] and on hEBI2 [3] were 3030 nM and 727 nM, respectively. This compound came in with an IC50 on hEBI2 [2] of more than 10000 nM. On to `C[C@H](CCCC(C)(C)O)[C@H]1CC[C@H]2[C@@H]3[C@H](O)C=C4C[C@@H](O)CC[C@]4(C)[C@H]3CC[C@]12C` [[^3H]-7a,25DHC], for which the Kd (as a rule, the equilibrium constant for the complex coming apart) at hEBI2 [4] stood at 25 nM. `C[C@H](CCCC(C)(C)O)[C@H]1CC[C@H]2[C@@H]3[C@@H](O)C=C4C[C@@H](O)CC[C@]4(C)[C@H]3CC[C@]12C` [[^3H]-7b,25DHC]: the “specific binding to EBI2 membranes” value on hEBI2 [4] (data not shown) was “not able to detect specific binding”. Turning to pertussis toxin [reference compound], in the assay with RS11846 cells, the “inhibition of 7a,25DHC-mediated chemotaxis of RS11846 cells” value is on record as “blocked”.
